Test results as given in patent US5863916A, “8-aza, 6-aza and 6,8-diaza-1,4-dihydroquinoxaline-2,3-diones and the use thereof as antagonists for the glycine/NMDA receptor” (priority 1997, dated 1999).

Key:
[1] = log P (literature); format: physicochemical; details: from benzene to pyridine N-oxide
[2] = system: strychnine-insensitive glycine sites associated with NMDA receptors; details: cited from earlier work

Compound | difference in log P [1] | inhibition of [3H]glycine binding [2]
[O-][n+]1ccccc1 [pyridine N-oxide] | -3.84 | –
Oc1nc2cccnc2nc1O [pyrido (2,3-b)pyrazine-2,3-diol] | – | active inhibitor
